Source: US20130109682A1, “CYCLIC ETHER COMPOUNDS USEFUL AS KINASE INHIBITORS” (NOVARTIS AG, priority 2010, published 2013)

Key:
GSK3β = GSK3β (Homo sapiens, UniProt P49841); assay: GSK3β ATP depletion assay; type: biochemical; settings: ATP depletion assay; read-out: GSK3b IC50
Method in brief: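 Kinase activity is read as ATP consumption: luciferase luminescence reports the ATP remaining once roughly half of the 2 μM ATP is used. Reaction mix: 5 nM GSK3β, 10 μM b-CREB peptide, 50 mM Tris pH 7.5, 15 mM MgCl2, 1 mM DTT, 0.1% BSA, 2.5% DMSO. Enzyme and peptide are preincubated 15 min before ATP is added.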

PIM1 = PIM1 (Homo sapiens, UniProt P11309); assay: Pim 1 AlphaScreen assay (high ATP); type: biochemical; settings: read-out: Pim1 IC50
Method: (§1) Pim1, Pim2, Pim3 AlphaScreen Assay Pim 1, Pim 2 & Pim 3 AlphaScreen assays using high ATP (11-125×ATP Km) were used to determine the biochemical activity of the inhibitors. The activity of Pim 1, Pim 2, & Pim 3 is measured using a homogeneous bead based system quantifying the amount of phosphorylated peptide substrate resulting from kinase-catalyzed phosphoryl transfer to a peptide substrate. Compounds to be tested are dissolved in 100% DMSO and directly distributed to a white 384-well plate at […] per well. To start the reaction, 5 μl of 100 nM Bad peptide (Biotin-AGAGRSRHSSYPAGT —OH) and ATP (concentrations described below) in assay buffer (50 mM Hepes, pH=7.5, 5 mM MgCl2, 0.05% BSA, 0.01% Tween-20, 1 mM DTT) is added to each well. This is followed by the addition of 5 μl/well of Pim 1, Pim 2 or Pim 3 kinase in assay buffer (concentrations described below). Final assay concentrations (described below) are in 2.5% DMSO. The reactions are performed for ˜2 hours, then stopped by the addition of 10 μl of 0.75 μg/ml anti-phospho Ser/Thr antibody (Cell Signaling), 10 μg/ml Protein A AlphaScreen beads (Perkin Elmer), and 10 μg/ml streptavidin coated AlphaScreen beads in stop/detection buffer (50 mM EDTA, 95 mM Tris, pH=7.5, 0.01% Tween-20). The stopped reactions are incubated overnight in the dark. The phosphorylated peptide is detected via an […] initiated chemiluminescence/fluorescence cascade using the Envision plate reader (Perkin Elmer).
(§2) IC50, the half maximal inhibitory concentration, represents the concentration of a test compound that is required for 50% inhibition of its target in vitro under the described assay conditions.

PIM2 = PIM2 (Homo sapiens, UniProt Q9P1W9); assay: Pim 2 AlphaScreen assay (high ATP); type: biochemical; settings: read-out: Pim2 IC50
Method: as §1, §2

PIM3 = PIM3 (Homo sapiens, UniProt Q86V86); assay: Pim 3 AlphaScreen assay (high ATP); type: biochemical; settings: read-out: Pim3 IC50
Method: as §1, §2

[1] = test system: KMS11 (human myeloma cell line); assay: Cell proliferation assay (CellTiter-Glo), KMS11; type: cell-based; settings: Homo sapiens, KMS-11; KMS11 cells, cell proliferation; read-out: KMS11-Luc EC50
Method in brief: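 EC50 derived from CellTiter-Glo luminescence after 3-day exposure at 37° C. Compound was diluted to 2× in medium and added to an equal volume of cells. KMS11 myeloma cells were plated on assay day at 2000/well in IMDM with 10% FBS and sodium pyruvate.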

Chain of PIM2 (Q9P1W9 whole entry): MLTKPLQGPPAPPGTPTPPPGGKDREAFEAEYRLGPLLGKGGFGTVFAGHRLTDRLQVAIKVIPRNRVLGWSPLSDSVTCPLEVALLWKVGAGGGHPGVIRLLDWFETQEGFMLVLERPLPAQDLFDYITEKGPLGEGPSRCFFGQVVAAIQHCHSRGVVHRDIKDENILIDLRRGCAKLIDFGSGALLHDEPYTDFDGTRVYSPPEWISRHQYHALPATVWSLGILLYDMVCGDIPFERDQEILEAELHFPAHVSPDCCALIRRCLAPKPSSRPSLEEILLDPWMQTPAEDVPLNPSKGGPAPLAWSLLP
Chain of PIM1 (P11309 whole entry): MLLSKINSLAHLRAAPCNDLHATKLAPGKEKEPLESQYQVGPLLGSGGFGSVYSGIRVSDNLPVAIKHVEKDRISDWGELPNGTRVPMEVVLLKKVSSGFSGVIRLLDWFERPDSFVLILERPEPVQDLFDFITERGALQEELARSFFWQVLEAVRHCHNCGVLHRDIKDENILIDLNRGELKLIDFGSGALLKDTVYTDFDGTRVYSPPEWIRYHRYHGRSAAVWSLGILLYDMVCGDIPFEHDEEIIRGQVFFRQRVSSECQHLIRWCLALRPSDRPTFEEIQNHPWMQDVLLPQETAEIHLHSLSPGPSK
Chain of GSK3β (P49841 whole entry, species assumed): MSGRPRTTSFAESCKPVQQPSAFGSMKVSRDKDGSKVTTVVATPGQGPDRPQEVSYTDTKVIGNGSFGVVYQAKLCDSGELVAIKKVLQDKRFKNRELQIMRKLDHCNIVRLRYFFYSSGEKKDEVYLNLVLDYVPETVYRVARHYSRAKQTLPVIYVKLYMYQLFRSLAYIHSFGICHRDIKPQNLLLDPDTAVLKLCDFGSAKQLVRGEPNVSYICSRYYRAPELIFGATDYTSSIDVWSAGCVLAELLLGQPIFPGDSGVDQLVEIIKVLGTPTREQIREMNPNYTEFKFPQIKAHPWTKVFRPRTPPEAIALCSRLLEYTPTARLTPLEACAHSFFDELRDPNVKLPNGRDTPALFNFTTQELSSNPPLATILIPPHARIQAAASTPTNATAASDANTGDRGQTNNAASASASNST

| IC50 (GSK3β) [µM] | IC50 (PIM1) [µM] | IC50 (PIM2) [µM] | IC50 (PIM3) [µM] | EC50 [1] [µM] | Structure (SMILES) |
| --- | --- | --- | --- | --- | --- |
| 16.1 | 0.0231 | 0.66 | 0.512 |  | CC(C)C1OC(c2ccncc2NC(=O)c2nc(-c3c(F)cccc3F)ncc2N)C[C@H](N)[C@H]1O (stereo in doubt) [Example 273, 5-amino-N-(4-((2S,4S,5R,6R)-4-amino-5-hydroxy-6-isopropyltetrahydro-2H-pyran-2-yl)pyridin-3-yl)-2-(2,6-difluorophenyl)pyrimidine-4-carboxamide] |
| 10.7 | 0.0047 | 0.305 | 0.0957 |  | CC(C)C1OC(c2ccncc2NC(=O)c2ccc(F)c(-c3c(F)cccc3F)n2)C[C@H](N)[C@H]1O (stereo in doubt) [Example 274, N-(4-((2S,4S,5R,6R)-4-amino-5-hydroxy-6-isopropyltetrahydro-2H-pyran-2-yl)pyridin-3-yl)-6-(2,6-difluorophenyl)-5-fluoropicolinamide] |
| 16.6 | 0.00262 | 0.234 | 0.0519 |  | CC[C@H]1O[C@@H](c2ccncc2NC(=O)c2ccc(F)c(-c3c(F)cccc3F)n2)C[C@@H](N)[C@]1(C)O (stereo in doubt) [Example 275, N-(4-((2R,4R,5S,6R)-4-amino-6-ethyl-5-hydroxy-5-methyltetrahydro-2H-pyran-2-yl)pyridin-3-yl)-6-(2,6-difluorophenyl)-5-fluoropicolinamide] |
| 20.9 | 0.00047 | 0.0174 | 0.0046 |  | CC[C@@H]1O[C@H](c2ccncc2NC(=O)c2ccc(F)c(-c3c(F)cccc3F)n2)C[C@H](N)[C@@]1(C)O (stereo in doubt) [Example 276, N-(4-((2S,4S,5R,6S)-4-amino-6-ethyl-5-hydroxy-5-methyltetrahydro-2H-pyran-2-yl)pyridin-3-yl)-6-(2,6-difluorophenyl)-5-fluoropicolinamide] |
| 9.83 | 0.00462 |  | 0.201 | 4.38 | N[C@H]1C[C@@H](c2ccncc2NC(=O)c2ccc(F)c(-c3c(F)cccc3F)n2)O[C@H]2CCC[C@H]21 [Example 223, N-(4-((2S,4S,4aS,7aS)-4-aminooctahydrocyclopenta[b]pyran-2-yl)pyridin-3-yl)-6-(2,6-difluorophenyl)-5-fluoropicolinamide] |
| > 25 | 14.6 |  | > 25 | > 10 | COc1cc(NC(=O)c2ccc(F)c(-c3c(F)cccc3F)n2)c([C@H]2C[C@@H](O)[C@H](O)[C@@H](CO)O2)cn1 [Example 225, 6-(2,6-difluorophenyl)-N-(5-((2R,4R,5S,6R)-4,5-dihydroxy-6-(hydroxymethyl)tetrahydro-2H-pyran-2-yl)-2-methoxypyridin-4-yl)-5-fluoropicolinamide] |
| 10.6 | 1.43 |  | 23.5 | > 10 | O=C(Nc1cc(=O)[nH]cc1[C@H]1C[C@@H](O)[C@H](O)[C@@H](CO)O1)c1ccc(F)c(-c2c(F)cccc2F)n1 [Example 226, 6-(2,6-difluorophenyl)-N-(5-((2R,4R,5S,6R)-4,5-dihydroxy-6-(hydroxymethyl)tetrahydro-2H-pyran-2-yl)-2-oxo-1,2-dihydropyridin-4-yl)-5-fluoropicolinamide] |
| 0.0532 | 0.00024 |  | 0.0146 | 5.82 | N[C@@H]1C[C@H](c2ccncc2NC(=O)c2csc(-c3c(F)cccc3F)n2)O[C@@H]2CCC[C@H]12 [Example 231, N-(4-((2R,4R,4aR,7aR)-4-aminooctahydrocyclopenta[b]pyran-2-yl)pyridin-3-yl)-2-(2,6-difluorophenyl)thiazole-4-carboxamide] |
| 7.42 | 0.00035 | 0.0099 | 0.0076 |  | N[C@@H]1C[C@H](c2ccncc2NC(=O)c2ccc(F)c(-c3c(F)cccc3F)n2)O[C@H](C2CC2)[C@H]1O [Example 235, N-(4-((2R,4R,5S,6R)-4-amino-6-cyclopropyl-5-hydroxytetrahydro-2H-pyran-2-yl)pyridin-3-yl)-6-(2,6-difluorophenyl)-5-fluoropicolinamide] |
